Measured values taken from patent publication US12364702B2, “Highly active sting protein agonist compound” (ADLAI NORTYE BIOPHARMA CO., LTD., priority 2018, dated 2025).

Columns and labels:
Assay type in all cases: cell-based
STING WT variant = target: T1, STING WT variant (Homo sapiens, UniProt Q86WV6); experiment: SEAP reporter assay in HEK-Blue ISG KO-STING cells transfected with STING WT variant (Method 2); set-up: key: ratio of compound SEAP signal to 0.5% DMSO; conditions: 1 ng STING vector (WT variant), compound 2.5 uM, 24 h, SEAP signal vs 0.5% DMSO
T1 construct: host or cells: HEK-Blue ISG KO-STING cells (Invivogen, hkb-kostg)
Description: (§1) Activation of STING can be determined using a SEAP reporter assay in HEK-Blue™ ISG KO-STING cells (Invivogen, cat #hkb-kostg) transfected with plasmids expressing STING variants (WT & HAQ) (referred to WO2017/175147A1). STING variants (WT & HAQ) vector were constructed based on STING-232H vector (Origene, RC208418). GFP vector (VT2069) was bought from Youbio. The detailed protocol as follows: HEK-Blue™ ISG KO-STING cells were harvest and seeding into 96 well plate and the final cell number was 0.8×10^5 cells/well. Transfections were prepared using Lipofectamine 2000 (Invitrogen, Cat #11668-027) following the manufacturer's instructions (Lipo2000/DNA=1/10), 20 ul of transfection suspension containing 1 ng (WT variant) or 0.0625 ng (HAQ variant) STING vector was added to cell culture plate and incubated at 37° C., 5% CO2 for 24 hours. After 24 hours incubation, compounds were added at proper concentration, the final DMSO concentration was 0.5%. After 24 h incubation, the supernatant was collected to detect SEAP signal using Great EscAPe SEAP chemiluminescence KIT (Clontech, cat #631738) and cells were collected to detect cell viability using CellTiter-Glo Luminescent Cell Viability Assay (Promega, cat #G7573) following the manufacturer's instructions. The data were described by the ratio of the stimulating signal of compounds to 0.5% DMSO.

STING = STING (Homo sapiens, UniProt Q86WV6); experiment: IFN-β secretion from THP1 by STING activation (hIFNβ ELISA); conditions: THP1 cells, 24 h incubation, IFN-β in supernatant, top dose set according to solubility; for EC50: read-out: hIFNβ ELISA (EC50)
Chain of STING (Q86WV6 whole entry): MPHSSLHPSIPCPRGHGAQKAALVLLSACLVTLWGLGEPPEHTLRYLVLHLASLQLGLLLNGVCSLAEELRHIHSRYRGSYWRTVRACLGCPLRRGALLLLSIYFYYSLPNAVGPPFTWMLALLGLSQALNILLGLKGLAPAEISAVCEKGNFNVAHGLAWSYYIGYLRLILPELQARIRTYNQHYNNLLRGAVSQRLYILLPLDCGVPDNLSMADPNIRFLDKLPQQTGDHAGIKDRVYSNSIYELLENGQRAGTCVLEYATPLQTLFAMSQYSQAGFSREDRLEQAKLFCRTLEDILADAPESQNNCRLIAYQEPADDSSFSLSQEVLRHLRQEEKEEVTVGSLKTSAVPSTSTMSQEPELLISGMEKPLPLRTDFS
In short: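 THP1 cells (2×10^6 cells/ml) exposed 24 h at 37° C, 5% CO2 to 8-point, 3-fold compound dilutions, 0.2% DMSO final, top dose set by solubility. Secreted IFN-β in supernatant measured by human IFNβ ELISA; EC50 from curve fitting.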

STING HAQ variant = target: T2, STING HAQ variant (Homo sapiens, UniProt Q86WV6, G230A/R293Q/R71H); experiment: SEAP reporter assay in HEK-Blue ISG KO-STING cells transfected with STING HAQ variant (Method 2); set-up: key: ratio of compound SEAP signal to 0.5% DMSO; conditions: 0.0625 ng STING vector (HAQ variant), compound 5 uM, 24 h, SEAP signal vs 0.5% DMSO
T2 construct: host or cells: HEK-Blue ISG KO-STING cells (Invivogen, hkb-kostg)
T2 sequence (Q86WV6 whole entry R71H/G230A/R293Q): as the sequence (Q86WV6 whole entry) above, with R71H, G230A, R293Q counted along it
Description: as §1

Row | Structure (SMILES) | Fold change related to DMSO control WT (STING WT variant) | EC50 (STING) [µM] | Fold change related to DMSO control HAQ (STING HAQ variant) | hIFNβ ELISA (EC50, μM) (STING)
1 | CCn1nc(C)cc1C(=O)Nc1nc2cc(C(N)=O)cc(OCCCNC(=O)CN3CC[C@@H](OC)C3)c2n1CCC[C@H]1COc2cc(C(N)=O)cc3nc(NC(=O)c4cc(C)nn4CC)n1c23 [Example 39, (S)-3-(3-(5-carbamoyl-2-(1-ethyl-3-methyl-1H-pyrazole-5-carboxamido)-7-(3-(2-((R)-3-methoxypyrrolidin-1-yl)acetamido)propoxy)-1H-benzo[d]imidazol-1-yl)propyl)-2-(1-ethyl-3-methyl-1H-pyrazole-5-carboxamido)-3,4-dihydro-5-oxa-1,2a-diazaacenaphthylene-7-carboxamide] | 11.39 | 2.2 | 16.45 | 
2 | CCn1nc(C)cc1C(=O)Nc1nc2cc(C(N)=O)cc(OCCCNC(=O)CN3CCC(O)CC3)c2n1CCC[C@H]1COc2cc(C(N)=O)cc3nc(NC(=O)c4cc(C)nn4CC)n1c23 [Example 40, (S)-3-(3-(5-carbamoyl-2-(1-ethyl-3-methyl-1H-pyrazole-5-carboxamido)-7-(3-(2-(4-hydroxypiperidin-1-yl)acetamido)propoxy)-1H-benzo[d]imidazol-1-yl)propyl)-2-(1-ethyl-3-methyl-1H-pyrazole-5-carboxamido)-3,4-dihydro-5-oxa-1,2a-diazaacenaphthylene-7-carboxamide] | 7.82 | 4.7 | 13.94 | 
3 | CCn1nc(C)cc1C(=O)Nc1nc2cc(C(N)=O)cc(OCCCNC(=O)CN3CC(COC)C3)c2n1CCC[C@H]1COc2cc(C(N)=O)cc3nc(NC(=O)c4cc(C)nn4CC)n1c23 [Example 41, (S)-3-(3-(5-Carbamoyl-2-(1-ethyl-3-methyl-1H-pyrazole-5-carboxamido)-7-(3-(2-(3-(methoxymethyl)azetidin-1-yl)acetamido)propoxy)-1H-benzo[d]imidazol-1-yl)propyl)-2-(1-ethyl-3-methyl-1H-pyrazole-5-carboxamido)-3,4-dihydro-5-oxa-1,2a-diazaacenaphthylene-7-carboxamide] | 7.15 | 8.8 | 19.38 | 
4 | CCn1nc(C)cc1C(=O)Nc1nc2cc(C(N)=O)cc(OCCCNC(=O)CN3CCC(OC)CC3)c2n1CCC[C@H]1COc2cc(C(N)=O)cc3nc(NC(=O)c4cc(C)nn4CC)n1c23 [Example 42, (S)-3-(3-(5-carbamoyl-2-(1-ethyl-3-methyl-1H-pyrazole-5-carboxamido)-7-(3-(2-(4-methoxypiperidin-1-yl)acetamido)propoxy)-1H-benzo[d]imidazol-1-yl)propyl)-2-(1-ethyl-3-methyl-1H-pyrazole-5-carboxamido)-3,4-dihydro-5-oxa-1,2a-diazaacenaphthylene-7-carboxamide] | 10.04 | 2.2 | 17.42 | 
5 | CCn1nc(C)cc1C(=O)Nc1nc2cc(C(N)=O)cc(OCCCNC(=O)CN3CC(OC)C3)c2n1CCC[C@H]1COc2cc(C(N)=O)cc3nc(NC(=O)c4cc(C)nn4CC)n1c23 [Example 43, (S)-3-(3-(5-carbamoyl-2-(1-ethyl-3-methyl-1H-pyrazole-5-carboxamido)-7-(3-(2-(3-methoxyazetidin-1-yl)acetamido)propoxy)-1H-benzo[d]imidazol-1-yl)propyl)-2-(1-ethyl-3-methyl-1H-pyrazole-5-carboxamido)-3,4-dihydro-5-oxa-1,2a-diazaacenaphthylene-7-carboxamide] | 7.12 | 4.6 | 19.89 | 
6 | CCn1nc(C)cc1C(=O)Nc1nc2cc(C(N)=O)cc(OCCCNS(=O)(=O)CCN)c2n1CCC[C@H]1COc2cc(C(N)=O)cc3nc(NC(=O)c4cc(C)nn4CC)n1c23 [Example 44, (S)-3-(3-(7-(3-(2-aminoethylsulfonamido)propoxy)-5-carbamoyl-2-(1-ethyl-3-methyl-1H-pyrazole-5-carboxamido)-1H-benzo[d]imidazol-1-yl)propyl)-2-(1-ethyl-3-methyl-1H-pyrazole-5-carboxamido)-3,4-dihydro-5-oxa-1,2a-diazaacenaphthylene-7-carboxamide] | 6.47 | > 39.7 | 31.46 | 
7 | CCn1nc(C)cc1C(=O)Nc1nc2cc(C(N)=O)cc(OCCCNS(=O)(=O)C3CCNCC3)c2n1CCC[C@H]1COc2cc(C(N)=O)cc3nc(NC(=O)c4cc(C)nn4CC)n1c23 [Example 45, (S)-3-(3-(5-carbamoyl-2-(1-ethyl-3-methyl-1H-pyrazole-5-carboxamido)-7-(3-(piperidine-4-sulfonamido)propoxy)-1H-benzo[d]imidazol-1-yl)propyl)-2-(1-ethyl-3-methyl-1H-pyrazole-5-carboxamido)-3,4-dihydro-5-oxa-1,2a-diazaacenaphthylene-7-carboxamide] | 4.43 | > 50 | 21.63 | 
8 | CCn1nc(C)cc1C(=O)Nc1nc2cc(C#N)cc(OCCCNC(=O)CN3CCOCC3)c2n1CCC[C@H]1COc2cc(C(N)=O)cc3nc(NC(=O)c4cc(C)nn4CC)n1c23 [Example 46, (S)-3-(3-(5-cyano-2-(1-ethyl-3-methyl-1H-pyrazole-5-carboxamido)-7-(3-(2-morpholinoacetamido)propoxy)-1H-benzo[d]imidazol-1-yl)propyl)-2-(1-ethyl-3-methyl-1H-pyrazole-5-carboxamido)-3,4-dihydro-5-oxa-1,2a-diazaacenaphthylene-7-carboxamide] | 10.68 | > 6.9 | 12.84 | 
9 | CCn1nc(C)cc1C(=O)Nc1nc2cc(C(N)=O)cc(OCCCNC(=O)CN3CCOCC3)c2n1CCC[C@H]1COc2cc(C#N)cc3nc(NC(=O)c4cc(C)nn4CC)n1c23 [Example 47, (S)-1-(3-(7-cyano-2-(1-ethyl-3-methyl-1H-pyrazole-5-carboxamido)-3,4-dihydro-5-oxa-1,2a-diazaacenaphthylen-3-yl)propyl)-2-(1-ethyl-3-methyl-1H-pyrazole-5-carboxamido)-7-(3-(2-morpholinoacetamido)propoxy)-1H-benzo[d]imidazole-5-carboxamide] | 9.80 |  | 9.16 | inactive
10 | CCn1nc(C)cc1C(=O)Nc1nc2cc(C#N)cc(OCCCNC(=O)CN3CCOCC3)c2n1CCC[C@H]1COc2cc(C#N)cc3nc(NC(=O)c4cc(C)nn4CC)n1c23 [Example 48, (S)—N-(5-cyano-1-(3-(7-cyano-2-(1-ethyl-3-methyl-1H-pyrazole-5-carboxamido)-3,4-dihydro-5-oxa-1,2a-diazaacenaphthylen-3-yl)propyl)-7-(3-(2-morpholinoacetamido)propoxy)-1H-benzo[d]imidazol-2-yl)-1-ethyl-3-methyl-1H-pyrazole-5-carboxamide] | 5.70 |  | 7.94 | inactive
11 | CCn1nc(C)c(F)c1C(=O)Nc1nc2cc(C(N)=O)cc(OCCCOC)c2n1CCC[C@H]1COc2cc(C(N)=O)cc3nc(NC(=O)c4c(F)c(C)nn4CC)n1c23 [Example 49, (S)-3-(3-(5-carbamoyl-2-(1-ethyl-4-fluoro-3-methyl-1H-pyrazole-5-carboxamido)-7-(3-methoxypropoxy)-1H-benzo[d]imidazol-1-yl)propyl)-2-(1-ethyl-4-fluoro-3-methyl-1H-pyrazole-5-carboxamido)-3,4-dihydro-5-oxa-1,2a-diazaacenaphthylene-7-carboxamide] | 11.17 | 0.5 | 27.58 | 
12 | CCn1nc(C)cc1C(=O)Nc1nc2cc(C(N)=O)cc(OCCCOC)c2n1CCC[C@H]1COc2cc(C(N)=O)cc3nc(NC(=O)c4c(F)c(C)nn4CC)n1c23 [Example 50, (S)-3-(3-(5-carbamoyl-2-(1-ethyl-3-methyl-1H-pyrazole-5-carboxamido)-7-(3-methoxypropoxy)-1H-benzo[d]imidazol-1-yl)propyl)-2-(1-ethyl-4-fluoro-3-methyl-1H-pyrazole-5-carboxamido)-3,4-dihydro-5-oxa-1,2a-diazaacenaphthylene-7-carboxamide] | 8.92 | 1.6 | 32.38 | 
